Experiments:
[1] = tested on: carbamoyl-phosphate synthetase 2, aspartate transcarbamylase, and dihydroorotase (CAD); assay: CAD activity (phosphorylation at S1859) in IL-2/PHA-stimulated CD4 T cells; type: cell-based
Description: (§1) PLD inhibitors modulate intracellular deoxyribonucleotides levels. […] CD4 T-cells experiments were performed with ani-CD3/CD28-currently completing experiments with IL-2/phytohaemagglutinin (PHA)-stimulated CD4 T cells.

THP-1 cells = assay: dNTP levels in THP-1 cells (HPLC-MS); type: cell-based; conditions: statement
Description: Briefly, Undifferentiated THP-1 cells (5×10̂6 cells/well) were treated with various inhibitors (10 μM EVJ, 10 μM JWJ, 100 nM rapamycin, 250 nM torin1, or 1 μM Go6976) for 16 h before harvest and extraction for HPLC-MS analysis of dNTP levels. Data represents analysis of triplicate samples.
Briefly, THP-1 cells (2.5×10^5 cells in 0.5 mL of c-RPMI (5×10^5/mL)/well) were seeded into 24-well plates and differentiated with 0.1 μM PMA for 24 h. Cells were then pretreated for 4 h with inhibitors (10 μM EVJ, 10 μM JWJ, 100 nM rapamycin, 250 nM torin1, or 10 μM concentration of two AKT inhibitors for comparison). Cells were then infected with HIV-1-GFP in the continued presence of inhibitors. Levels of infection were determined by flow cytometry (BD Biosciences FACSCalibur) 72 h post-infection. […] This difference is likely due to an increase in PLD1 activity in PMA-treated THP-1 cells.

CAD = assay: dNTP levels with CAD overexpression; type: cell-based; conditions: FIG. 13
Plasma protein binding = type: in vitro ADME
[2] = PO plasma and brain levels; type: in vivo, mice; conditions: dose 10 mg/kg
Description: The pharmacokinetic behavior of a representative disclosed PLD inhibitor of the present invention was assessed following […]. Briefly, mice were administered a single dose of a representative PLD inhibitor, either VUO364739 or VU359595 (10 mg/kg) by either intravenous injection or by oral administration. Plasma samples and tissue samples (brain) were isolated at various time points following euthanizing animal. The samples were flash frozen and stored at −80° C. Analysis was carried out by LC-MS/MS following extraction.

IV pharmacokinetics = type: in vivo, mice; conditions: dose 1 mg/kg; for half-life / Vd: mouse, plasma; for Vd: read-out: Vdss
HIV-1 [3] = assay: HIV-1 infection of U87.CD4.CXCR4 cells; type: cell-based; conditions: data not shown
HIV-1 [4] = assay: HIV-1 infection in PMA-stimulated THP-1 cells (flow cytometry); type: cell-based; conditions: 10 μM, 4 h pretreatment, HIV-1-GFP, 72 h post-infection, FIG. 10
U87MG cells = assay: SILAC proteomic analysis on U87MG cells; type: cell-based; conditions: EVJ on U87MG cells, FIG. 12
Description: A SILAC proteomic analysis was conducted using the PLD1-preferring inhibitor EVJ on U87MG cells.

primary T-cells = assay: dNTP increases in stimulated primary CD4 T-cells; type: cell-based, human; conditions: FIG. 14
Description: as §1

HIV-1 [5] = assay: HIV-1 replication in activated primary CD4+ T cells; type: cell-based, human; conditions: 10 μM, PHA/IL2 activated after EVJ treatment, FIG. 14

Compound | activity of CAD, phosphorylation at activation residue S1859 [1] | Deoxyribonucleotide (dNTP) levels (THP-1 cells) | dNTP levels upon CAD over expression (CAD) | Plasma Protein Binding (% bound) (Plasma protein binding) | Plasma [2] [ng/kg] | CI (IV pharmacokinetics) [mL/min/kg] | half-life (IV pharmacokinetics) [h] | Vd (IV pharmacokinetics) [L/kg] | HIV-1 infection of U87.CD4.CXCR4 cells (HIV-1 [3]) | HIV-1 replication in THP-1 cells, undifferentiated vs PMA-differentiated (HIV-1 [4]) | also measured
CNC(=O)c1cccc(-c2ccc3c(N4CCOC[C@@H]4C)nc(N4CCOC[C@@H]4C)nc3n2)c1 [AZD2014] | suppress activity |  |  |  |  |  |  |  |  |  | 
NC(=O)NO [Hydroxyurea] | comparative modest effects |  |  |  |  |  |  |  |  |  | 
NC1(c2ccc(-c3nc4ccn5c(=O)[nH]nc5c4cc3-c3ccccc3)cc2)CCC1 [MK2206, reference compound] |  | potently reduced | continues to block dNTP levels |  |  |  |  |  |  |  | 
O=C(NCCN1CCC2(CC1)C(=O)NCN2c1cccc(F)c1)c1ccc2ccccc2c1 [No. 1, N-(2-(1-(3-fluorophenyl)-4-oxo-1,3,8-triazaspiro [4.5]decan-8-yl)ethyl)-2-naphthamide] |  |  |  | 98.1 | 29 | 60.7 | 0.78 | 4.7 | inhibit HIV-1 infection | inhibits HIV-1 replication under both conditions | Brain (ng/kg) [2]: BLQ; Brain: Plasma [2]: BLQ
C[C@@H](CN1CCC(n2c(=O)[nH]c3cc(Br)ccc32)CC1)NC(=O)[C@@H]1C[C@@H]1c1ccccc1 [No. 2, (1R,2S)-N-((S)-1-(4-(5-bromo-2-oxo-2,3-dihydro-1H-benzo[d]imidazol-1-yl)piperidin-1-yl)propan-2-yl)-2-phenylcyclopropane carboxamide] | suppress activity |  | partially rescues the dNTP biosynthetic phenotype | 97.9 | 39.9 | 61.5 | 1.52 | 8.1 | inhibit HIV-1 infection | more robust effect on HIV-1 replication in PMA-differentiated THP-1 cells | signaling pathway changed (network analysis) (U87MG cells): mTORC1 signaling is the predominant signaling pathway changed; dNTP increases in CD4-receptor stimulated primary T-cells from human donors (primary T-cells): blunt dNTP increases; Brain [2]: 29 ng/kg; Kp ([2]; mouse, brain/plasma): 0.73; HIV-1 replication in activated primary CD4+ T cells (HIV-1 [5]): inhibits HIV-1 replication
CCC(=O)N1CCN(c2ccc(-n3c(=O)ccc4cnc5ccc(-c6cnc7ccccc7c6)cc5c43)cc2C(F)(F)F)CC1 [Torin1] | suppress activity | potently reduced |  |  |  |  |  |  |  |  | 

Reference: patent US20160296506A1, “Methods and Compositions for Treating HIV Infection” (priority 2012, published 2016)
